Experimental data as given in PubChem BioAssay AID1963961 (Molecular Pharmacology Branch, DTP, NCI, 2024).
Several values for one entry are separate records, joined by “and”; a condition that tells them apart may be missing. Identical values can stand only once.

Tested on: K98450-129-R-PDC multicell spheroids, viability
Assay: Anticancer human tumor K98450-129-R-PDC patient-derived colon adenocarcinoma cell line growth inhibition [PI3K]
Conditions: for viability, T/C: stronger effect = lower value
Summary of the method: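 Complex 3D spheroids (cancer cells + endothelial HUVEC + mesenchymal stem cells); drug pairs of targeted agent x inavolisib/alpelisib/duvelisib/copanlisib; half-log series from ~Cmax, max 10 microM if Cmax unknown; endpoint viability.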

[1] = curve of first compound, second compound 0.0316 µM
[2] = curve of first compound, second compound 0.1 µM
[3] = curve of first compound, second compound 0.316 µM
[4] = curve of first compound, second compound 1 µM
[5] = curve of first compound, second compound 3.16 µM
[6] = curve of first compound, second compound 10 µM
[7] = second compound 0.0316 µM, first compound 0.0316 µM
[8] = second compound 0.0316 µM, first compound 0.1 µM
[9] = second compound 0.0316 µM, first compound 0.316 µM
[10] = second compound 0.0316 µM, first compound 1 µM
[11] = second compound 0.0316 µM, first compound 3.16 µM
[12] = second compound 0.0316 µM, first compound 10 µM
[13] = second compound 0.1 µM, first compound 0.0316 µM
[14] = second compound 0.1 µM, first compound 0.1 µM
[15] = second compound 0.1 µM, first compound 0.316 µM
[16] = second compound 0.1 µM, first compound 1 µM
[17] = second compound 0.1 µM, first compound 3.16 µM
[18] = second compound 0.1 µM, first compound 10 µM
[19] = second compound 0.316 µM, first compound 0.0316 µM
[20] = second compound 0.316 µM, first compound 0.1 µM
[21] = second compound 0.316 µM, first compound 0.316 µM
[22] = second compound 0.316 µM, first compound 1 µM
[23] = second compound 0.316 µM, first compound 3.16 µM
[24] = second compound 0.316 µM, first compound 10 µM
[25] = second compound 1 µM, first compound 0.0316 µM
[26] = second compound 1 µM, first compound 0.1 µM
[27] = second compound 1 µM, first compound 0.316 µM
[28] = second compound 1 µM, first compound 1 µM
[29] = second compound 1 µM, first compound 3.16 µM
[30] = second compound 1 µM, first compound 10 µM
[31] = second compound 3.16 µM, first compound 0.0316 µM
[32] = second compound 3.16 µM, first compound 0.1 µM
[33] = second compound 3.16 µM, first compound 0.316 µM
[34] = second compound 3.16 µM, first compound 1 µM
[35] = second compound 3.16 µM, first compound 3.16 µM
[36] = second compound 3.16 µM, first compound 10 µM
[37] = second compound 10 µM, first compound 0.0316 µM
[38] = second compound 10 µM, first compound 0.1 µM
[39] = second compound 10 µM, first compound 0.316 µM
[40] = second compound 10 µM, first compound 1 µM
[41] = second compound 10 µM, first compound 3.16 µM
[42] = second compound 10 µM, first compound 10 µM
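Note: spheroids exposed to agents for seven days before read-out.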

`CNC(=O)c1ccc(N2C(=S)N(c3ccc(C#N)c(C(F)(F)F)c3)C(=O)C2(C)C)cc1F` + CC(Nc1ncnc2nc[nH]c12)c1cc2cccc(Cl)c2c(=O)n1-c1ccccc1 was tested, and the IC50 [1] was greater than 10 µM, the IC50 [2] was greater than 10 µM and the IC50 [3] was greater than 10 µM. The IC50 [4] was greater than 10 µM, the IC50 [5] was greater than 10 µM and the IC50 [6] was greater than 10 µM. The viability, T/C [7] was 109%, the viability, T/C [8] was 100% and the viability, T/C [9] was 104%. It also gave a viability, T/C [10] of 83.1%, a viability, T/C [11] of 104% and a viability, T/C [12] of 88.9%. The viability, T/C [13] was 116%, the viability, T/C [14] was 94% and the viability, T/C [15] was 106%. For the same compound, the viability, T/C [16] was 108%, the viability, T/C [17] was 88.8% and the viability, T/C [18] was 101%. For the same compound, the viability, T/C [19] was 104%, the viability, T/C [20] was 99.3% and the viability, T/C [21] was 97.2%. For the same compound, the viability, T/C [22] was 92.3%, the viability, T/C [23] was 112% and the viability, T/C [24] was 109%. For the same compound, the viability, T/C [25] was 92.8%, the viability, T/C [26] was 90.7% and the viability, T/C [27] was 95.5%. For the same compound, the viability, T/C [28] was 102%, the viability, T/C [29] was 99.8% and the viability, T/C [30] was 97.1%. It also gave a viability, T/C [31] of 83.1%, a viability, T/C [32] of 95.4% and a viability, T/C [33] of 82%. The viability, T/C [34] was 83.1%, the viability, T/C [35] was 87.6% and the viability, T/C [36] was 96.6%. The viability, T/C [37] was 76.8%, the viability, T/C [38] was 93.4% and the viability, T/C [39] was 83%. The viability, T/C [40] was 96.1%, the viability, T/C [41] was 109% and the viability, T/C [42] was 88%.
With `CNC(=O)c1ccc(N2C(=S)N(c3ccc(C#N)c(C(F)(F)F)c3)C(=O)C2(C)C)cc1F` + Cc1nc(NC(=O)N2CCCC2C(N)=O)sc1-c1ccnc(C(C)(C)C(F)(F)F)c1 the IC50 [1] was greater than 10 µM, the IC50 [2] was greater than 10 µM and the IC50 [3] was greater than 10 µM. It also gave an IC50 [4] greater than 10 µM, an IC50 [5] greater than 10 µM and an IC50 [6] greater than 10 µM. For the same compound, the viability, T/C [7] was 108%, the viability, T/C [8] was 93% and the viability, T/C [9] was 106%. The viability, T/C [10] was 94.2%, the viability, T/C [11] was 109% and the viability, T/C [12] was 111%. It also gave a viability, T/C [13] of 111%, a viability, T/C [14] of 92.2% and a viability, T/C [15] of 102%. It also gave a viability, T/C [16] of 89.2%, a viability, T/C [17] of 104% and a viability, T/C [18] of 109%. It also gave a viability, T/C [19] of 97%, a viability, T/C [20] of 96.2% and a viability, T/C [21] of 94.8%. For the same compound, the viability, T/C [22] was 97.3%, the viability, T/C [23] was 105% and the viability, T/C [24] was 109%. For the same compound, the viability, T/C [25] was 90.5%, the viability, T/C [26] was 91.2% and the viability, T/C [27] was 87.5%. The viability, T/C [28] was 91.4%, the viability, T/C [29] was 101% and the viability, T/C [30] was 99%. The viability, T/C [31] was 81.1%, the viability, T/C [32] was 88.2% and the viability, T/C [33] was 87.1%. For the same compound, the viability, T/C [34] was 81.8%, the viability, T/C [35] was 92% and the viability, T/C [36] was 83.7%. It also gave a viability, T/C [37] of 70.2%, a viability, T/C [38] of 69.2% and a viability, T/C [39] of 74.7%. For the same compound, the viability, T/C [40] was 71.1%, the viability, T/C [41] was 79% and the viability, T/C [42] was 73.5%.
`CC(C)NCC(C(=O)N1CCN(c2ncnc3c2C(C)CC3O)CC1)c1ccc(Cl)cc1` (stereo not given) + CC(Nc1ncnc2nc[nH]c12)c1cc2cccc(Cl)c2c(=O)n1-c1ccccc1 was tested, and the IC50 [1] was greater than 10 µM, the IC50 [2] was greater than 10 µM and the IC50 [3] was greater than 10 µM. For the same compound, the IC50 [4] was greater than 10 µM, the IC50 [5] was greater than 10 µM and the IC50 [6] was greater than 10 µM. For the same compound, the viability, T/C [7] was 98.2%, the viability, T/C [8] was 107% and the viability, T/C [9] was 101%. For the same compound, the viability, T/C [10] was 96.4%, the viability, T/C [11] was 102% and the viability, T/C [12] was 98.5%. It also gave a viability, T/C [13] of 111%, a viability, T/C [14] of 115% and a viability, T/C [15] of 99.3%. For the same compound, the viability, T/C [16] was 89.6%, the viability, T/C [17] was 94.9% and the viability, T/C [18] was 83.4%. For the same compound, the viability, T/C [19] was 96.6%, the viability, T/C [20] was 97.2% and the viability, T/C [21] was 87.1%. For the same compound, the viability, T/C [22] was 105%, the viability, T/C [23] was 105% and the viability, T/C [24] was 102%. For the same compound, the viability, T/C [25] was 106%, the viability, T/C [26] was 100% and the viability, T/C [27] was 104%. For the same compound, the viability, T/C [28] was 98.4%, the viability, T/C [29] was 115% and the viability, T/C [30] was 101%. It also gave a viability, T/C [31] of 79.2%, a viability, T/C [32] of 88.4% and a viability, T/C [33] of 101%. It also gave a viability, T/C [34] of 99.2%, a viability, T/C [35] of 97.5% and a viability, T/C [36] of 85.7%. For the same compound, the viability, T/C [37] was 110%, the viability, T/C [38] was 89.5% and the viability, T/C [39] was 77.5%. It also gave a viability, T/C [40] of 88.6%, a viability, T/C [41] of 103% and a viability, T/C [42] of 87.2%.
In the case of `CC(C)NCC(C(=O)N1CCN(c2ncnc3c2C(C)CC3O)CC1)c1ccc(Cl)cc1` (stereo not given), the viability, T/C (compound 0.0316 µM) is reported as 94.2% and 100% and 107% (2×), the viability, T/C (compound 0.1 µM) is reported as 100% (2×) and 93.4% and 105% and the viability, T/C (compound 0.316 µM) is reported as 105% [middle of 4 runs]. For the same compound, the viability, T/C (compound 1 µM) was 106% (2×) and 92.7% and 87.9%, the viability, T/C (compound 3.16 µM) was 93% [middle of 4 runs] and the viability, T/C (compound 10 µM) was 99.5% and 102% (2×) and 99.9%. The IC50 (curve of compound) was greater than 10 µM.
For `CC(C)n1nc(-c2ccc3oc(N)nc3c2)c2c(N)ncnc21` + CC(Nc1ncnc2nc[nH]c12)c1cc2cccc(Cl)c2c(=O)n1-c1ccccc1, the IC50 [1] was greater than 0.1 µM, the IC50 [2] was greater than 0.1 µM and the IC50 [3] was greater than 0.1 µM. The IC50 [4] was greater than 0.1 µM, the IC50 [5] was greater than 0.1 µM and the IC50 [6] was greater than 0.1 µM. The viability, T/C (second compound 0.0316 µM, first compound 0.000316 µM) was 106%, the viability, T/C (second compound 0.0316 µM, first compound 0.001 µM) was 91.5% and the viability, T/C (second compound 0.0316 µM, first compound 0.00316 µM) was 93.9%. The viability, T/C (second compound 0.0316 µM, first compound 0.01 µM) was 79%, the viability, T/C [7] was 84.6% and the viability, T/C [8] was 84.6%. For the same compound, the viability, T/C (second compound 0.1 µM, first compound 0.000316 µM) was 126%, the viability, T/C (second compound 0.1 µM, first compound 0.001 µM) was 96.9% and the viability, T/C (second compound 0.1 µM, first compound 0.00316 µM) was 106%. It also gave a viability, T/C (second compound 0.1 µM, first compound 0.01 µM) of 111%, a viability, T/C [13] of 81.1% and a viability, T/C [14] of 72.8%. The viability, T/C (second compound 0.316 µM, first compound 0.000316 µM) was 108%, the viability, T/C (second compound 0.316 µM, first compound 0.001 µM) was 134% and the viability, T/C (second compound 0.316 µM, first compound 0.00316 µM) was 81.3%. It also gave a viability, T/C (second compound 0.316 µM, first compound 0.01 µM) of 95.4%, a viability, T/C [19] of 92.7% and a viability, T/C [20] of 71.1%. It also gave a viability, T/C (second compound 1 µM, first compound 0.000316 µM) of 101%, a viability, T/C (second compound 1 µM, first compound 0.001 µM) of 111% and a viability, T/C (second compound 1 µM, first compound 0.00316 µM) of 84.3%. It also gave a viability, T/C (second compound 1 µM, first compound 0.01 µM) of 97.6%, a viability, T/C [25] of 92.1% and a viability, T/C [26] of 71.3%. The viability, T/C (second compound 3.16 µM, first compound 0.000316 µM) was 110%, the viability, T/C (second compound 3.16 µM, first compound 0.001 µM) was 97.4% and the viability, T/C (second compound 3.16 µM, first compound 0.00316 µM) was 103%. It also gave a viability, T/C (second compound 3.16 µM, first compound 0.01 µM) of 91.7%, a viability, T/C [31] of 90.4% and a viability, T/C [32] of 67.3%. The viability, T/C (second compound 10 µM, first compound 0.000316 µM) was 92.6%, the viability, T/C (second compound 10 µM, first compound 0.001 µM) was 84.2% and the viability, T/C (second compound 10 µM, first compound 0.00316 µM) was 87.1%. It also gave a viability, T/C (second compound 10 µM, first compound 0.01 µM) of 88.5%, a viability, T/C [37] of 87.6% and a viability, T/C [38] of 78.2%.
